# Experiments:
# Assay in all cases: 3H-TdR incorporation at 72 hr (24 hr drug exposure, wash, 48 hr)
# MCF-7 = assay type: cell-based, Human; details: Homo sapiens, MCF7, read-out: IC50 in μM (3H-TdR incorporation at 72 hr) MCF-7 24 h, MCF-7 Human Breast Carcinoma, 72 hr assay
# Protocol: (§1) Exposition of 24 hr to drug, wash, incubated for another 48 hr (total of 72 hr assay)
# (§2) (3H-Thymidine Incorporation Assay)
# SF-268 = assay type: cell-based, Human; details: Homo sapiens, SF-268, read-out: IC50 in μM (3H-TdR incorporation at 72 hr) SF-268 24 h, SF-268 Human Central Nervous System Tumor; 24 h drug exposure, 72 hr assay
# Protocol: as §1, §2
# H-460 = assay type: cell-based, Human; details: Homo sapiens, NCI-H460, read-out: IC50 in μM (3H-TdR incorporation at 72 hr) H-460 24 h, H-460 Human Lung Carcinoma, 72 hr assay
# Protocol: as §1, §2
# CCRF-CEM = assay type: cell-based; details: Homo sapiens, CCRF-CEM, read-out: IC50 in μM (3H-TdR incorporation at 72 hr) CCRF-CEM 24 h, CCRF-CEM T-cell Leukemia, 72 hr assay
# Protocol: as §1, §2
# CEM/dCK- = assay type: cell-based; details: for IC50: Homo sapiens, CCRF-CEM, read-out: IC50 in μM (3H-TdR incorporation at 72 hr) CEM/dCK- 24 h, CCRF-CEM deoxycytidine kinase-deficient, 24 h drug exposure, 72 hr assay; for Factor* (Resistance Factor = Ratio of dCK- on Wild-type CCRF-CEM): ratio of IC50 CEM/dCK- to IC50 CCRF-CEM
# Protocol: as §1, §2
Compound,IC50 (MCF-7),IC50 (SF-268),IC50 (H-460),IC50 (CCRF-CEM),IC50 (CEM/dCK-),Factor* (Resistance Factor = Ratio of dCK- on Wild-type CCRF-CEM) (CEM/dCK-)
"CCCCCc1ccc(OC(=O)Nc2ccn([C@@H]3CO[C@H](CO)O3)c(=O)n2)cc1 [Compound 250, [1-(2-HYDROXYMETHYL- [1,3]DIOXOLAN-4-YL)-2- OXO-1,2-DIHYDRO- […]-4-YL]- CARBAMIC ACID 4-PENTYL- PHENYL ESTER]",0.16 µM,0.17 µM,0.17 µM,0.063 µM,31 µM,492
"O=C(NCNc1ccn([C@@H]2CO[C@H](CO)O2)c(=O)n1)c1ccccc1 [Compound 165, N-{[1-(2-HYDROXYMETHYL- [1,3]DIOXOLAN-4-YL)-2- OXO-1,2-DIHYDRO- PYRIMIDIN-4-YLAMINO]- METHYL}-BENZAMIDE]",10 µM,16 µM,3.4 µM,1.8 µM,> 100 µM,>56
"CN(C)/C=N/c1ccn([C@@H]2CO[C@H](CO)O2)c(=O)n1 (stereo in doubt) [Compound 222, N′-[1-(2-HYDROXYMETHYL- [1,3]DIOXOLAN-4-YL)-2- OXO-1,2-DIHYDRO- PYRIMIDIN-4-YL]-N,N- DIMETHYL-FORMAMIDINE]",0.19 µM,0.85 µM,0.21 µM,0.11 µM,> 100 µM,>909
"CCCCC[C@H]1CC[C@H](C(=O)OC[C@H]2OC[C@@H](n3ccc(N)nc3=O)O2)CC1 [Compound 240, 4-PENTYL- CYCLOHEXANECARBOXYLIC ACID 4-(4-AMINO-2-OXO- 2H-PYRIMIDIN-1-YL)- [1,3]DIOXOLAN-2-YL METHYL ESTER]",≤ 0.0001 µM,≤ 0.0001 µM,≤ 0.0001 µM,≤ 0.0001 µM,2.5 µM,≧25000
"Nc1ccn([C@@H]2CO[C@H](COC(=O)c3ccccc3)O2)c(=O)n1 [Compound 163, BENZOIC ACID 4-(4- AMINO-2-OXO-2H- PYRIMIDIN-1-YL)- [1,3]DIOXOLAN-2- YLMETHYL ESTER]",0.033 µM,0.025 µM,0.0092 µM,0.0033 µM,27 µM,"8,182"
"Nc1ccn([C@@H]2CO[C@H](COC(=O)N(c3ccccc3)c3ccccc3)O2)c(=O)n1 [Compound 246, DIPHENYL-CARBAMIC ACID 4-(4-AMINO-2-OXO-2H- PYRIMIDIN-1-YL)- [1,3]DIOXOLAN-2-YL METHYL ESTER]",1.4 µM,28 µM,47 µM,25 µM,> 100 µM,>4
"Cc1ccc(C)c(OCCCC(C)(C)C(=O)Nc2ccn([C@@H]3CO[C@H](CO)O3)c(=O)n2)c1 [Compound 234, 5-(2,5-DIMETHYL- PHENOXY)-2,2-DIMETHYL- PENTANOIC ACID [1-(2- HYDROXYMETHYL- [1,3]DIOXOLAN-4-YL)-2- OXO-1,2-DIHYDRO- PYRIMIDIN-4-YL]-AMIDE]",0.1 µM,0.1 µM,1.5 µM,0.95 µM,> 100 µM,>105
"C#CCN(CC#C)c1ccn([C@@H]2CO[C@H](CO)O2)c(=O)n1 [Compound 171, (S,S) 4-(DI-PROP-2′- YNYL-AMINO)-1-(2″- HYDROXYMETHYL- [1,3]DIOXOLAN-4″-YL)- 1H-PYRIMIDIN-2-ONE]",41 µM,82 µM,45 µM,38 µM,> 100 µM,>2.6
"CN(C)CCCOC(=O)OC[C@H]1OC[C@@H](n2ccc(N)nc2=O)O1.O=C(O)C(F)(F)F [Compound 164, CARBONIC ACID 4-(4- AMINO-2-OXO-2H- PYRIMIDIN-1-YL)- [1,3]DIOXOLAN-2- YLMETHYL ESTER 3- DIMETHYLAMINO-PROPYL ESTER TRIFLUORO-ACETIC ACID SALT]",0.14 µM,0.28 µM,0.13 µM,0.06 µM,> 100 µM,1667
"CC(C)(CCCCCCc1ccccc1)C(=O)Nc1ccn([C@@H]2CO[C@H](CO)O2)c(=O)n1 [Compound 227, 2,2-DIMETHYL-8-PHENYL- OCTANOIC ACID [1-(2- HYDROXYMETHYL- [1,3]DIOXOLAN-4-YL)-2- OXO-1,2-DIHYDRO- PYRIMIDIN-4-YL]-AMIDE]",0.012 µM,3 µM,0.84 µM,0.043 µM,22 µM,512
"COC(OC)(OC[C@H]1OC[C@@H](n2ccc(N)nc2=O)O1)c1ccc(C)cc1 [Compound 200, 4-AMINO-1-[2- (DIMETHOXY-#P!-TOLYL- METHOXYMETHYL)- [1,3]DIOXOLAN-4-YL]- 1#H!-PYRIMIDIN-2-ONE]",1.1 µM,0.12 µM,0.3 µM,0.31 µM,72 µM,232
"CCOC(OCC)(OCC)OC[C@H]1OC[C@@H](n2ccc(N)nc2=O)O1 [Compound 199, 4-Amino-1-(2-triethoxymethoxymethyl-[1,3]dioxolan-4-yl)-1H-pyrimidin-2-one]",0.21 µM,0.0078 µM,0.033 µM,0.0094 µM,> 100 µM,>10638
"CC(C)Cc1ccc([C@H](C)C(=O)Nc2ccn([C@@H]3CO[C@H](CO)O3)c(=O)n2)cc1 [Compound 242, N-[1-(2-HYDROXYMETHYL- [1,3]DIOXOLAN-4-YL)-2- OXO-1,2-DIHYDRO- PYRIMIDIN-4-YL]-2-(4- ISOBUTYL-PHENYL)- PROPIONAMIDE]",0.001 µM,1.1 µM,0.25 µM,0.23 µM,93 µM,404
"CC(C)(CCCCCCc1ccccc1)C(=O)OC[C@H]1OC[C@@H](n2ccc(N)nc2=O)O1 [Compound 238, 2,2-DIMETHYL-8-PHENYL- OCTANOIC ACID 4-(4- AMINO-2-OXO-2H- PYRIMIDIN-1-YL)- [1,3]DIOXOLAN-2-YL METHYL ESTER]",≤ 0.0001 µM,0.025 µM,0.00045 µM,0.0025 µM,59 µM,"23,600"
"CC(C)Cc1ccc([C@H](C)C(=O)OC[C@H]2OC[C@@H](n3ccc(N)nc3=O)O2)cc1 [Compound 243, 2-(4-ISOBUTYL-PHENYL)- PROPIONIC ACID 4-(4- AMINO-2-OXO-2H- PYRIMIDIN-1-YL)- [1,3]DIOXOLAN-2-YL METHYL ESTER]",0.0005 µM,0.32 µM,0.0011 µM,0.027 µM,72 µM,"2,667"
"CN(C)CCCCOC(=O)Nc1ccn([C@@H]2CO[C@H](CO)O2)c(=O)n1.O=C(O)C(F)(F)F [Compound 169, [1-(2-HYDROXYMETHYL- [1,3]DIOXOLAN-4-YL)-2- OXO-1,2-DIHYDRO- PYRIMIDIN-4-YL]- CARBAMIC ACID 4- DIMETHYLAMINO-BUTYL ESTER TRIFLUOROACETIC ACID SALT]",5.1 µM,7.1 µM,8.2 µM,2 µM,> 100 µM,>50
"C[C@H]1CC[C@@](C)(C(=O)Nc2ccn([C@@H]3CO[C@H](CO)O3)c(=O)n2)C1(C)C [Compound 235, 1,2,2,3-TETRAMETHYL- CYCLOPENTANECARBOXYLIC ACID [1-(2- HYDROXYMETHYL- [1,3]DIOXOLAN-4-YL)-2- OXO-1,2-DIHYDRO- PYRIMIDIN-4-YL]-AMIDE]",1.1 µM,0.38 µM,1.6 µM,1.2 µM,61 µM,51
